Data from ChEMBL document CHEMBL1201862, “PubChem BioAssay data set” (2004).
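Protocol summary: plate cells (96-well), add compound at 5 concentrations, incubate 48 h, interpolate endpoints linearly. GI50 is the concentration that inhibits growth by half.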 Activity calls are given as the source filed them. Cut-off read from the data, not from the text of the source: active = GI50 up to about 1.1 µM and inactive = higher.

Assays:
Experiment in all cases: NCI-60 cell line screen, 48 h
[1] = tested on: NCI-H23
[2] = tested on: A498
[3] = tested on: Malme-3M
[4] = tested on: UACC-257
[5] = tested on: MCF7
[6] = tested on: IGROV-1
[7] = tested on: PC-3
[8] = tested on: SK-OV-3
[9] = tested on: MDA-MB-231
[10] = tested on: OVCAR-3
[11] = tested on: CAKI-1
[12] = tested on: ACHN
[13] = tested on: HL-60
[14] = tested on: U-251
[15] = tested on: MDA-N
[16] = tested on: DU-145
[17] = tested on: NCI-H460
[18] = tested on: OVCAR-8
[19] = tested on: SN12C
[20] = tested on: NCI/ADR-RES

Measured: GI50

O=C(CNc1ccc(Cl)cc1)Nn1c(-c2ccccc2)nc2ccccc2c1=O
inactive: [1] 5.43 µM | [2] 14.9 µM | [3] 6.55 µM | [4] 12.8 µM | [5] 3.32 µM | [6] 3.84 µM | [7] 12.6 µM | [8] 10.1 µM | [9] 4.79 µM | [10] 12.1 µM | [11] 11.4 µM | [12] 8.89 µM | [13] 6.65 µM | [14] 3.47 µM | [15] 7.38 µM | [16] 15.1 µM | [17] 8.79 µM | [18] 3.72 µM | [19] 7.43 µM | [20] 6.79 µM

CCNC(=S)NNC(=O)C12CC3CC(CC(C3)C1)C2
inactive: [1] > 100 µM | [2] > 100 µM | [3] > 100 µM | [4] > 100 µM | [5] > 100 µM | [6] > 100 µM | [7] > 100 µM | [8] > 100 µM | [9] > 100 µM | [10] > 100 µM | [11] > 100 µM | [12] > 100 µM | [13] > 100 µM | [14] > 100 µM | [15] > 100 µM | [16] > 100 µM | [17] > 100 µM | [18] > 100 µM | [19] > 100 µM | [20] > 100 µM
